From ChEMBL document CHEMBL4834397 (J Med Chem, 2021)
Converted amounts (≈) assume the structure as drawn.

Experiments:
[1] = Half life in rat liver microsomes in presence of NADPH; format: ADME, Microsome
[2] = molecular target: Voltage-gated inwardly rectifying potassium channel KCNH2 (Homo sapiens, UniProt Q12809); assay: Displacement of [3H]dofetilide from recombinant human ERG stably expressed in HEK293 cell membranes measured after 90 mins by microbeta liquid scintillation counting method; parameters: species or system Cell membrane
Chain of Voltage-gated inwardly rectifying potassium channel KCNH2 (Q12809 whole entry): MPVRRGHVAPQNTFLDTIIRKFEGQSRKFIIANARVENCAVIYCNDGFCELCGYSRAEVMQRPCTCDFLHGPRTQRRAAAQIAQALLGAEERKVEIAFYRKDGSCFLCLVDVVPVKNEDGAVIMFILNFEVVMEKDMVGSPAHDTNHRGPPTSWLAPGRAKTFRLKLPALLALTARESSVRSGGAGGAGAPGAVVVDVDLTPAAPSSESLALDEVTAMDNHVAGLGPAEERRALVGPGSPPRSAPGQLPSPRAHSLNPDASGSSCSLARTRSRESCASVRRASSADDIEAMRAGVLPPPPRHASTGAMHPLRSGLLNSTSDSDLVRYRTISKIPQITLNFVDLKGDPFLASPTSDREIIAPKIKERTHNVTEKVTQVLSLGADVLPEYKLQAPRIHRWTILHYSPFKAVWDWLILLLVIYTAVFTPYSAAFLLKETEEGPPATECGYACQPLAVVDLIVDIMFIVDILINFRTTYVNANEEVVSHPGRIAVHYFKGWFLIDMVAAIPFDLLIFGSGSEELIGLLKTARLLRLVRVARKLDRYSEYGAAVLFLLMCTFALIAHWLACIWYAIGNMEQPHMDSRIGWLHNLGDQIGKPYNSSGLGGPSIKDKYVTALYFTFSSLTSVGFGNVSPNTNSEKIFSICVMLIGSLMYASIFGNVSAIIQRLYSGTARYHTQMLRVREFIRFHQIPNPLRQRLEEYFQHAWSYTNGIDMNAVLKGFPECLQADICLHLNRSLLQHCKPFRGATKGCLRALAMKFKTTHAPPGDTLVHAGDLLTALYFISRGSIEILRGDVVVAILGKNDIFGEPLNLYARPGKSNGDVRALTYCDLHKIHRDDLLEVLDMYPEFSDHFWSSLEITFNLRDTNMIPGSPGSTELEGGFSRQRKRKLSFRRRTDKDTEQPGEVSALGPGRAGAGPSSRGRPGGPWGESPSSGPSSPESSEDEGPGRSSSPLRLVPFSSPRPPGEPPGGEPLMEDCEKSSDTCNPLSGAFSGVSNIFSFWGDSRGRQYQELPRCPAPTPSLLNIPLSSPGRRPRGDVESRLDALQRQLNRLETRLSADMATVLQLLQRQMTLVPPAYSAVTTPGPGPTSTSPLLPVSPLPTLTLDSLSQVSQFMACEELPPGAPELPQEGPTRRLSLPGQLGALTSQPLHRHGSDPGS

[3] = molecular target: Cytochrome P450 2C9 (Homo sapiens, UniProt P11712); assay: Reversible inhibition of CYP2C9 in human liver microsomes using […] as substrate incubated for 10 mins in presence of NADPH by LC-MS analysis; format: ADME
Chain of Cytochrome P450 2C9 (P11712 whole entry): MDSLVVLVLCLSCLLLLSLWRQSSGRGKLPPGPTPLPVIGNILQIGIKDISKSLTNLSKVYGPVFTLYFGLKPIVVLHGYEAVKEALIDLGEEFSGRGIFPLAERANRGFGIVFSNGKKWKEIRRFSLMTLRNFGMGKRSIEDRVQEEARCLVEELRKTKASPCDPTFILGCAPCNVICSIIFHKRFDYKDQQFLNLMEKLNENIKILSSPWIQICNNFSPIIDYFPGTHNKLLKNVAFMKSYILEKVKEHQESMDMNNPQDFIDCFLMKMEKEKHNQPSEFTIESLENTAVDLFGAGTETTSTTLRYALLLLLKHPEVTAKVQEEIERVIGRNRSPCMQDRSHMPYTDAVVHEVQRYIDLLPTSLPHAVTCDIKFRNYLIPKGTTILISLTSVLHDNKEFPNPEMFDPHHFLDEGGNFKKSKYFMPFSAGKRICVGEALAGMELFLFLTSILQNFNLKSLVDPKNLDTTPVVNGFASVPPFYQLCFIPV

[4] = molecular target: Cytochrome P450 2D6 (Homo sapiens, UniProt P10635); assay: Reversible inhibition of CYP2D6 in human liver microsomes using […] as substrate incubated for 10 mins in presence of NADPH by LC-MS analysis; format: ADME
Chain of Cytochrome P450 2D6 (P10635 whole entry): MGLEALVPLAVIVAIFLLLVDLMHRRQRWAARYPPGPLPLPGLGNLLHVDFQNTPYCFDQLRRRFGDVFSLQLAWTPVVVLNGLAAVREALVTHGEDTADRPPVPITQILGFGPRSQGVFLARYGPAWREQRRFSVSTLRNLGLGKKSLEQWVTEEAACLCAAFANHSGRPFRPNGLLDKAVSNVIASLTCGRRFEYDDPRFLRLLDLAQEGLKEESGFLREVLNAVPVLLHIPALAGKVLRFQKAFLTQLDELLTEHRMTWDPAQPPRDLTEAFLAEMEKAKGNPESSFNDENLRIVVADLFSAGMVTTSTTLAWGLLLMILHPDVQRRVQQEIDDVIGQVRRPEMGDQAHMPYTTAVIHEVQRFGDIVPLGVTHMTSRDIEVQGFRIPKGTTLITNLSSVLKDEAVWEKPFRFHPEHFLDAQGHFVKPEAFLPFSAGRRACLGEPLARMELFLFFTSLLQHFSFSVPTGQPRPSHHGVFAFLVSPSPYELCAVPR

[5] = molecular target: Cytochrome P450 3A5 (Homo sapiens, UniProt P20815); assay: Reversible inhibition of CYP3A5 in human liver microsomes using midazolam as substrate incubated for 10 mins in presence of NADPH by LC-MS analysis; format: ADME
Chain of Cytochrome P450 3A5 (P20815 whole entry): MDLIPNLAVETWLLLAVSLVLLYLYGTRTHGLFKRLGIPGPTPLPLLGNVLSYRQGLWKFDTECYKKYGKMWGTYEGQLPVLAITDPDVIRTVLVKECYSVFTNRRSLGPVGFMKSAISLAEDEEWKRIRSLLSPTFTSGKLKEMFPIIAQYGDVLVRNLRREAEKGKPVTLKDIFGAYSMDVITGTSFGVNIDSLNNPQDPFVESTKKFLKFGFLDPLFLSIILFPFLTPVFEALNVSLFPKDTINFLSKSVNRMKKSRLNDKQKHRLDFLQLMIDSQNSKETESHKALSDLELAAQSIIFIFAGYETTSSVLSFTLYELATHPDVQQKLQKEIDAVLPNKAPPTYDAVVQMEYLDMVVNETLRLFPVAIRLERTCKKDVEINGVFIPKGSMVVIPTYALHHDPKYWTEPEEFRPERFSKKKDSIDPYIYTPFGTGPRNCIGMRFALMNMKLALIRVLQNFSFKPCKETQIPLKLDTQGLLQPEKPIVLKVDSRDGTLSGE

[6] = Solubility of compound in aqueous buffer at pH 6.8 by HPLC analysis; format: physicochemical
[7] = molecular target: T1, Leukotriene A-4 hydrolase (Homo sapiens, UniProt P09960); assay: Inhibition of LTA4H in human whole blood assessed as reduction of calcium ionophore A23187-stimulated LTB4 generation preincubated for 4 hrs followed by ionophore stimulation and measured after 15 hrs by EIA assay; format: tissue-based
T1 sequence (P09960 whole entry): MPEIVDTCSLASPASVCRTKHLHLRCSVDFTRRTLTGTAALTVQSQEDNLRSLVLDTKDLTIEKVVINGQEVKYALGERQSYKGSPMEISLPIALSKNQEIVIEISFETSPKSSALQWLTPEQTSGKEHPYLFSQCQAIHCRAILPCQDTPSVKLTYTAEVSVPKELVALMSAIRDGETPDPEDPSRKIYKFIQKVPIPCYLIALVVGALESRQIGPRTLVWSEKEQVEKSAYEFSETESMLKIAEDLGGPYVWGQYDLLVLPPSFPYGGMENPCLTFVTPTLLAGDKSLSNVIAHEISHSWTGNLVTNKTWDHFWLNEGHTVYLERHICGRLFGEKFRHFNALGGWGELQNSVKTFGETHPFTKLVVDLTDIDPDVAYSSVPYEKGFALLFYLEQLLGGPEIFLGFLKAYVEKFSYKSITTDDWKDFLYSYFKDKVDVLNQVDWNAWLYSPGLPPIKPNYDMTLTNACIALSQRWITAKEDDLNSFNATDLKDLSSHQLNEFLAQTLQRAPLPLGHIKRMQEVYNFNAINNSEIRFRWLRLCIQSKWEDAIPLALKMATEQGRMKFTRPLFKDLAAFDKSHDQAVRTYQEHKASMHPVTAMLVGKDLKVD

[8] = molecular target: T1, Leukotriene A-4 hydrolase; assay: Inhibition of LTA4H in human PBMC assessed as reduction of calcium ionophore A23187-stimulated LTB4 generation preincubated for 4 hrs followed by ionophore stimulation and measured after 2 hrs by EIA assay; format: tissue-based
[9] = molecular target: T1, Leukotriene A-4 hydrolase; assay: Inhibition of recombinant full length N-terminal His6-tagged LTA4H (unknown origin) expressed in Escherichia coli BL21 DE3 cells at enzyme concentration <1 nM using Arg-AMC as substrate preincubated for 15 mins followed by substrate addition and measured every 10 mins for 300 mins by fluorescence based assay
[10] = Drug concentration in blood isolated from C57/BL6 mouse at 0.625 mg/kg, po BID for 3 days measured after 2 hrs post last dose; format: ADME, organism-based; settings: time 3 day, read-out: Ct
[11] = Drug concentration in blood isolated from C57/BL6 mouse at […], po BID for 3 days measured after 2 hrs post last dose; format: ADME, organism-based; settings: dose 2.5 mg/kg, time 3 day, read-out: Ct
[12] = Drug concentration in blood isolated from C57/BL6 mouse at 10 mg/kg, po BID for 3 days measured after 2 hrs post last dose; format: ADME, organism-based; settings: time 3 day, read-out: Ct
[13] = Drug concentration in plasma isolated from C57/BL6 mouse at 0.625 mg/kg, po BID for 3 days measured after 2 hrs post last dose; format: ADME, organism-based; settings: time 3 day
[14] = Drug concentration in plasma isolated from C57/BL6 mouse at […], po BID for 3 days measured after 2 hrs post last dose; format: ADME, organism-based; settings: dose 2.5 mg/kg, time 3 day
[15] = Drug concentration in plasma isolated from C57/BL6 mouse at 10 mg/kg, po BID for 3 days measured after 2 hrs post last dose; format: ADME, organism-based; settings: time 3 day
[16] = Drug concentration in blood isolated from C57/BL6 mouse at 0.625 mg/kg, po BID for 3 days measured after 14 hrs post last dose; format: ADME, organism-based; settings: time 3 day, read-out: Ct
[17] = Drug concentration in blood isolated from C57/BL6 mouse at […], po BID for 3 days measured after 14 hrs post last dose; format: ADME, organism-based; settings: dose 2.5 mg/kg, time 3 day, read-out: Ct
[18] = Drug concentration in blood isolated from C57/BL6 mouse at 10 mg/kg, po BID for 3 days measured after 14 hrs post last dose; format: ADME, organism-based; settings: time 3 day, read-out: Ct
[19] = Drug concentration in plasma isolated from C57/BL6 mouse at 0.625 mg/kg, po BID for 3 days measured after 14 hrs post last dose; format: ADME, organism-based; settings: time 3 day
[20] = Drug concentration in plasma isolated from C57/BL6 mouse at […], po BID for 3 days measured after 14 hrs post last dose; format: ADME, organism-based; settings: dose 2.5 mg/kg, time 3 day
[21] = Drug concentration in plasma isolated from C57/BL6 mouse at 10 mg/kg, po BID for 3 days measured after 14 hrs post last dose; format: ADME, organism-based; settings: time 3 day
[22] = molecular target: T2, Leukotriene A-4 hydrolase (Homo sapiens) (UniProt P09960); settings: Blood, time 19.0 hrs
T2 sequence (whole entry): T1 sequence (P09960 whole entry)

[23] = molecular target: T2, Leukotriene A-4 hydrolase (Homo sapiens); settings: PBMC, time 6.0 hrs
[24] = molecular target: T1, Leukotriene A-4 hydrolase; assay: Inhibition of recombinant full length N-terminal His6-tagged LTA4H (unknown origin) expressed in Escherichia coli BL21 DE3 cells at enzyme concentration 9 nM using Arg-AMC as substrate preincubated for 15 mins followed by substrate addition and measured every 10 mins for 300 mins by fluorescence based assay
[25] = molecular target: T2, Leukotriene A-4 hydrolase (Homo sapiens); settings: dose 125.0 µM, time 30.0 min
[26] = molecular target: T2, Leukotriene A-4 hydrolase (Homo sapiens); settings: dose 250.0 µM, time 30.0 min
[27] = molecular target: T2, Leukotriene A-4 hydrolase (Homo sapiens); settings: dose 500.0 µM, time 30.0 min
[28] = molecular target: T2, Leukotriene A-4 hydrolase (Homo sapiens); settings: dose 1000.0 µM, time 30.0 min

## Cc1ccc(Oc2ccc(-c3nnn(CCN)n3)cc2)cc1
[1]
  half-life: 5 min
[2]
  IC50: 5.8 µM
[3]
  IC50: 1.4 µM
[4]
  IC50: 14 µM
[5]
  IC50: > 20 µM

## O=C(O)CNCCn1nnc(-c2ccc(Oc3ccc(Cl)cc3)cc2)n1
[1]
  half-life: 142 min

## O=C(O)CCCn1nnc(-c2ccc(Oc3ccc(Cl)cc3)cc2)n1
[1]
  half-life: 405 min
[2]
  IC50: > 30 µM
[3]
  IC50: > 20 µM
[4]
  IC50: > 20 µM
[5]
  IC50: > 20 µM

## N[C@@H](CC(=O)O)Cn1nnc(-c2ccc(COCc3ccccc3)cc2)n1
[6]
  solubility: 166 µM (≈ 61 µg/mL)

## C[C@H](CN)n1nnc(-c2ccc(Oc3ccc(Cl)cc3)cc2)n1
[1]
  half-life: 15 min
[2]
  IC50: > 30 µM
[3]
  IC50: 2 µM
[4]
  IC50: 11 µM
[5]
  IC50: > 20 µM

## CCCCCOc1ccc(-c2nnn(C[C@H](N)CC(=O)O)n2)cc1
[6]
  solubility: 65 µM (≈ 21.7 µg/mL)

## N[C@H](CC(=O)O)Cn1nnc(-c2ccc(Oc3ccc(-c4ncco4)cc3)cc2)n1
[6]
  solubility: 17 µM (≈ 6.91 µg/mL)

## O=C(O)c1ccc(CN2C[C@@H]3C[C@H]2CN3Cc2ccc(Oc3ccc(-c4ncco4)cc3)cc2)cc1 [ACEBILUSTAT]
[7]
  IC50: 0.142 µM
[8]
  IC50: 0.024 µM
[9]
  IC50: 0.0049 µM
[10]
  concentration at 72 h: 488 nM
[11]
  concentration at 72 h: 1860 nM
[12]
  concentration at 72 h: 7620 nM
[13]
  concentration at 72 h: 597 nM
[14]
  concentration at 72 h: 3820 nM
[15]
  concentration at 72 h: 14600 nM
[16]
  concentration at 72 h: 32 nM
[17]
  concentration at 72 h: 166 nM
[18]
  concentration at 72 h: 554 nM
[19]
  concentration at 72 h: 9 nM
[20]
  concentration at 72 h: 94 nM
[21]
  concentration at 72 h: 826 nM
[22]
  IC90: 0.728 µM
[23]
  IC90: 0.181 µM

## C[C@H](Cc1ccccc1)Oc1ccc(-c2nnn(C[C@@H](N)CC(=O)O)n2)cc1
[6]
  solubility: 391 µM (≈ 149 µg/mL)

## N[C@H](CC(=O)O)Cn1nnc(-c2ccc(Oc3nc4ccccc4s3)cc2)n1
[6]
  solubility: 23 µM (≈ 9.12 µg/mL)

## O=C(O)CCCN1CCC[C@H]1COc1ccc(Oc2ccc(Cl)cc2)cc1
[22]
  IC90: 5.05 µM
[23]
  IC90: 1.07 µM

## O=C(O)CCn1nnc(-c2ccc(Oc3ccc(Cl)cc3)cc2)n1
[1]
  half-life: 114 min
[2]
  IC50: > 30 µM
[3]
  IC50: > 20 µM
[4]
  IC50: > 20 µM
[5]
  IC50: > 20 µM

## N[C@H](CC(=O)O)Cn1nnc(-c2ccc(OCCc3ccccc3)cc2)n1
[6]
  solubility: 23 µM (≈ 8.45 µg/mL)

## N[C@@H](Cn1nnc(-c2ccc(Oc3ccc(Cl)cc3)cc2)n1)C(=O)O
[1]
  half-life: > 55 min

## C[C@@H](N)Cn1nnc(-c2ccc(Oc3ccc(Cl)cc3)cc2)n1
[1]
  half-life: 33 min
[2]
  IC50: > 30 µM
[3]
  IC50: > 20 µM
[4]
  IC50: > 20 µM
[5]
  IC50: > 20 µM

## COc1cnc(Oc2ccc(-c3nnn(C[C@H](N)CC(=O)O)n3)cc2)nc1
[6]
  solubility: > 1000 µM

## CC(=O)NCCn1nnc(-c2ccc(Oc3ccc(Cl)cc3)cc2)n1
[1]
  half-life: > 55 min
[2]
  IC50: > 30 µM
[3]
  IC50: > 20 µM
[4]
  IC50: > 20 µM
[5]
  IC50: > 20 µM

## N[C@@H](CC(=O)O)Cn1nnc(-c2ccc(Oc3nc4ccccc4s3)cc2)n1
[6]
  solubility: 35 µM (≈ 13.9 µg/mL)

## NCCn1nnc(-c2ccc(Oc3ccc(Cl)cc3)cc2)n1
[1]
  half-life: 15 min

## N[C@H](CC(=O)O)Cn1nnc(-c2ccc(Oc3ccc(Cl)cn3)cc2)n1
[6]
  solubility: 344 µM (≈ 129 µg/mL)

## CC(=O)N[C@H]1C[C@H]2CC[C@@H](C1)N2Cc1ccc(Oc2nc3ncccc3s2)cc1
[7]
  IC50: 0.048 µM
[8]
  IC50: 0.018 µM
[9]
  IC50: 0.0019 µM
[22]
  IC90: 0.104 µM
[23]
  IC90: 0.092 µM

## N[C@@H](CC(=O)O)Cn1nnc(-c2ccc(Oc3ccc(Cl)cc3)cc2)n1
[1]
  half-life: 190 min
[6]
  solubility: 26 µM (≈ 9.72 µg/mL)

## OCc1ccc(Oc2ccccc2)cc1
[24]
  IC50: 4.5 µM
[25]
  ΔTm: 0.08 °C
[26]
  ΔTm: 0.2 °C
[27]
  ΔTm: 0.2 °C
[28]
  ΔTm: 0.3 °C

## N[C@H](CC(=O)O)Cn1nnc(-c2ccc(Oc3ncc(Cl)cc3F)cc2)n1
[6]
  solubility: 398 µM (≈ 156 µg/mL)

## NCCCn1nnc(-c2ccc(Oc3ccc(Cl)cc3)cc2)n1
[1]
  half-life: 30 min
[2]
  IC50: 4.8 µM
[3]
  IC50: > 20 µM
[4]
  IC50: > 20 µM
[5]
  IC50: > 20 µM

## N[C@H](CC(=O)O)Cn1nnc(-c2ccc(Oc3ccc(Cl)cc3)cc2)n1
[1]
  half-life: 240 min
[6]
  solubility: 28 µM (≈ 10.5 µg/mL)

## N[C@H](CC(=O)O)Cn1nnc(-c2ccc(Oc3ccc(F)cc3)cc2)n1
[6]
  solubility: 135 µM (≈ 48.2 µg/mL)
